# Test results as given in patent US12543737B2, “Herbicidal composition and method for controlling weeds” (SUMITOMO CHEMICAL COMPANY, LIMITED, priority 2020, dated 2026).
# Key:
# [1] = system: waterhemp (Amaranthus tuberculatus=Amaranthus rudis=Amaranthus tamariscinus) having the substitution of an amino acid residue of G210Δ in PPX2; assay: Herbicidal effect, foliar spray pot test in greenhouse (Example 9); assay type: in vivo; conditions: spray volume 216 L/ha, 28 days after spraying, rating 0 to 100
# [2] = system: waterhemp (Amaranthus tuberculatus=Amaranthus rudis=Amaranthus tamariscinus) having the substitution of an amino acid residue of G210Δ in PPX2; assay: Herbicidal effect, foliar spray pot test in greenhouse (Example 10); assay type: in vivo; conditions: 216 L/ha, 28 days after spraying, rating 0 to 100
# [3] = glufosinate-ammonium 350 g/ha alone
smiles,measurement,setting,value
"CCOC(=O)COc1ncccc1Oc1cc(-n2c(=O)cc(C(F)(F)F)n(C)c2=O)c(F)cc1Cl [compound X, epyrifenacil]",Herbicidal effect,[1]; compound X 0.5 g/ha alone,17
same,Herbicidal effect,[1]; compound X 1 g/ha alone,18
CP(=O)(O)CCC(N)C(=O)O (centres unmarked) [glufosinate-ammonium],Herbicidal effect,[1]; [3],37
same,Herbicidal effect,[2]; [3],37
C#CCN1C(=O)C(F)(F)Oc2cc(F)c(-n3c(=O)n(C)c(=S)n(C)c3=O)cc21 [trifludimoxazin],Herbicidal effect,[2]; trifludimoxazin 0.5 g/ha alone,10
